# Source: article PMC4763718 (MedChemComm, 2015)
# System: J6/JFH(p7-Rluc2A) HCV
# Assay: not given
# Assay type: cell-based, hepatitis C virus
row,SMILES,effect on HCV replication (in words)
1,CC(C)Oc1snc2cc(-c3ccsc3)cnc12 [Compound 8j],minimal to no effect

# Biological target: T1, cyclin G associated kinase (GAK) (Homo sapiens, UniProt O14976)
# T1 sequence (O14976 1-1311): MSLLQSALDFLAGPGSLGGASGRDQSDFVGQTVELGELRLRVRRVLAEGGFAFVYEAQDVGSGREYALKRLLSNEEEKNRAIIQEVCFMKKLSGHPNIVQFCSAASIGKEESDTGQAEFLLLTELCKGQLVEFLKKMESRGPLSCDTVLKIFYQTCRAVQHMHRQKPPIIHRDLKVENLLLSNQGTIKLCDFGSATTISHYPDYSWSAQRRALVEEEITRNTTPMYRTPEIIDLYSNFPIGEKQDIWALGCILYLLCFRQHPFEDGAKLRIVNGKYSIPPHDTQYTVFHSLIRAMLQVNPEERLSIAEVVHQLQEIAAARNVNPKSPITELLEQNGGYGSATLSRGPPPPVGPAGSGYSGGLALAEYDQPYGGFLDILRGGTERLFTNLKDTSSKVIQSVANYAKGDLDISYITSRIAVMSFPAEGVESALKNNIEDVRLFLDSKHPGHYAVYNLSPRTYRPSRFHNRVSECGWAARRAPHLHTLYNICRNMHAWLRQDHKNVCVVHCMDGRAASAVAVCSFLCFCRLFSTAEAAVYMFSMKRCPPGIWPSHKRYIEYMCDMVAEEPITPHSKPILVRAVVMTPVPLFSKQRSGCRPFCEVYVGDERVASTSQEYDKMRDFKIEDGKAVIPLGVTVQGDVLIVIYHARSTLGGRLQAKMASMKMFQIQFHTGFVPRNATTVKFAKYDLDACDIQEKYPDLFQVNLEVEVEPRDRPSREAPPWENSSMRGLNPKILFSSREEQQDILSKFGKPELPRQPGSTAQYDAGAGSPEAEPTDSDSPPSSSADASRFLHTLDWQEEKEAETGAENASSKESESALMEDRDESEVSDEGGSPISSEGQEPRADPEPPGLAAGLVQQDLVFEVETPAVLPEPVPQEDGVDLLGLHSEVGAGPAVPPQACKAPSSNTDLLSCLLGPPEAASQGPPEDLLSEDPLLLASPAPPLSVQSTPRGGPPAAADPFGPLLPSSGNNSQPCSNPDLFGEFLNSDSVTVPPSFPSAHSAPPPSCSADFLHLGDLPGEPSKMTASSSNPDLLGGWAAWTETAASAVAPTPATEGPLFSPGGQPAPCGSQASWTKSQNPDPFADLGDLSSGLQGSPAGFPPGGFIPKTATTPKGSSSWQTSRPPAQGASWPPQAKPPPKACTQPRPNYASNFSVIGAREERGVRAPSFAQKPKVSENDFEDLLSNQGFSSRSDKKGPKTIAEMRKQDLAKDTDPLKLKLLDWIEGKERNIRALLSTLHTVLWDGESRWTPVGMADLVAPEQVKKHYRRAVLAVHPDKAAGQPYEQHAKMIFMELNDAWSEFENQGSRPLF
# Assay: KINOMEscan competition binding assay
row,SMILES,GAK affinity (in words)
1,COc1ccc(-c2cnc3c(NC(=O)C4CC=CC4)snc3c2)cc1OC [Compound 5g],reduced the affinity to GAK
2,COc1ccc(-c2cnc3c(NC(=O)C4CCCCCC4)snc3c2)cc1OC [Compound 5h],reduced the affinity to GAK
3,COc1ccc(-c2cnc3c(NC(=O)C4CCOCC4)snc3c2)cc1OC [Compound 5i],reduced the affinity to GAK
4,CCCCCOc1snc2cc(-c3ccc(OC)c(OC)c3)cnc12 [Compound 8e],completely abolished GAK affinity
5,COc1ccc(-c2cnc3c(N4CCN(C(C)C)CC4)snc3c2)cc1OC [Compound 8l],did not lead to any improvement in GAK affinity
6,CCCCN1CCN(c2snc3cc(-c4ccc(OC)c(OC)c4)cnc23)CC1 [Compound 8m],did not lead to any improvement in GAK affinity
7,COc1ccc(-c2cnc3c(N4CCN(c5ccncc5)CC4)snc3c2)cc1OC [Compound 8n],did not lead to any improvement in GAK affinity
8,COc1ccc(-c2cnc3c(N4CCN(C(=O)c5ccccc5)CC4)snc3c2)cc1OC [Compound 8q],inactive
